Results taken from ChEMBL document CHEMBL3997819, “Synthesis and biological evaluation of heterocyclic analogues of pregnenolone as novel anti-osteoporotic agents” (2017).
Calls of active or inactive are those of the source. No cut-off for these calls is given here.

What was measured:
Calvarial osteoblast [1] = test: Antiosteoporotic activity in mouse calvarial osteoblasts assessed as upregulation of BMP-2 mRNA levels at 1 pM measured at 24 hrs by real-time quantitative PCR method relative to control; assay type: functional
Calvarial osteoblast [2] = test: Antiosteoporotic activity in mouse calvarial osteoblasts assessed as increase in mineral nodule formation at 1 to 100 pM after 21 days by alizarin red-S dye-based optical densitometry relative to control; assay type: functional, cell-based
Calvarial osteoblast [3] = test: Antiosteoporotic activity in mouse calvarial osteoblasts assessed as upregulation of OCN mRNA levels at 1 pM measured at 24 hrs by real-time quantitative PCR method relative to control; assay type: functional
Calvarial osteoblast [4] = test: Antiosteoporotic activity in mouse calvarial osteoblasts assessed as enhancement in ALP activity at 1 pM after 48 hrs by PNPP substrate-based spectrophotometric method relative to control; assay type: functional
Calvarial osteoblast [5] = test: Antiosteoporotic activity in mouse calvarial osteoblasts assessed as enhancement in ALP activity at 1 nM to 1 uM after 48 hrs by PNPP substrate-based spectrophotometric method relative to control; assay type: functional, cell-based
Calvarial osteoblast [6] = test: Antiosteoporotic activity in mouse calvarial osteoblasts assessed as upregulation of Runx-2 mRNA levels at 1 pM measured at 24 hrs by real-time quantitative PCR method relative to control; assay type: functional
Calvarial osteoblast [7] = test: Antiosteoporotic activity in mouse calvarial osteoblasts assessed as enhancement in ALP activity at 100 pM after 48 hrs by PNPP substrate-based spectrophotometric method relative to control; assay type: functional
Calvarial osteoblast [8] = test: Antiosteoporotic activity in mouse calvarial osteoblasts assessed as enhancement in ALP activity at 1 pM to 1 uM after 48 hrs by PNPP substrate-based spectrophotometric method relative to control; assay type: functional, cell-based

Compound: C[C@]12CC[C@H]3[C@@H](CC=C4C[C@@H](O)CC[C@@]43C)[C@@H]1CC[C@@H]2c1ccc2ccccc2n1
- fold change (FC) (Calvarial osteoblast [1]): 2
- Activity (Calvarial osteoblast [2]): Active
- fold change (FC) (Calvarial osteoblast [3]): 3
- Activity (Calvarial osteoblast [4]): 100%
- Activity (Calvarial osteoblast [5]): Active
- fold change (FC) (Calvarial osteoblast [6]): 1.5
- Activity (Calvarial osteoblast [7]): 85%

Compound: CC(=O)O[C@H]1CC[C@@]2(C)C(=CC[C@H]3[C@@H]4CC[C@H](C(C)=O)[C@@]4(C)CC[C@@H]32)C1
- Activity (Calvarial osteoblast [8]): Active

Compound: C/C(=N\O)[C@H]1CC[C@H]2[C@@H]3CC=C4C[C@@H](O)CC[C@]4(C)[C@H]3CC[C@]12C
- Activity (Calvarial osteoblast [8]): Active

Compound: C[C@]12CC[C@H]3[C@@H](CC=C4C[C@@H](O)CC[C@@]43C)[C@@H]1CC[C@@H]2c1ccc2cc(Br)cc(Br)c2n1
- Activity (Calvarial osteoblast [8]): Active
